Experimental data: PubChem BioAssay (NCI)
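Briefly, cells in 96-well plates were exposed to five compound concentrations for 48 h, and endpoints were estimated by linear interpolation. The concentration for 50% growth inhibition is given as GI50. TGI: total growth inhibition.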

What was measured:
Test in all cases: growth of human tumour cells (NCI), 48 h
[1] = test system: PC-3 prostate
[2] = test system: HS 578T breast
[3] = test system: SK-MEL-5 melanoma
[4] = test system: MCF7 breast
[5] = test system: HCC-2998 colon
[6] = test system: A549 NSCLC
[7] = test system: KM12 colon
[8] = test system: COLO 205 colon
[9] = test system: OVCAR-3 ovarian
[10] = test system: SF-539 CNS
[11] = test system: M14 melanoma
[12] = test system: A498 renal
[13] = test system: CCRF-CEM leukemia
[14] = test system: HCT-15 colon
[15] = test system: NCI-H23 lung
[16] = test system: SF-268 CNS
[17] = test system: TK-10 renal
[18] = test system: NCI-H226 lung
[19] = test system: HL-60(TB) leukemia
[20] = test system: IGROV1 ovarian
[21] = test system: OVCAR-4 ovarian
[22] = test system: OVCAR-8 ovarian
[23] = test system: OVCAR-5 ovarian
[24] = test system: SNB-19 CNS
[25] = test system: SN12C renal
[26] = test system: BT-549 breast
[27] = test system: MDA-MB-231 breast
[28] = test system: NCI-H460 lung
[29] = test system: U251 CNS
[30] = test system: SW-620 colon
[31] = test system: RXF 393 renal
[32] = test system: SK-OV-3 ovarian
[33] = test system: SK-MEL-28 melanoma
[34] = test system: MOLT-4 leukemia
[35] = test system: DU-145 prostate
[36] = test system: HOP-92 NSCLC
[37] = test system: LOX IMVI melanoma
[38] = test system: HT29 colon
[39] = test system: CAKI-1 renal
[40] = test system: HCT-116 colon
[41] = test system: SR leukemia
[42] = test system: MALME-3M melanoma
[43] = test system: SNB-75 CNS
[44] = test system: UACC-62 melanoma
[45] = test system: NCI-H522 lung
[46] = test system: 786-0 renal
[47] = test system: ACHN renal
[48] = test system: K-562 leukemia
[49] = test system: SK-MEL-2 melanoma
[50] = test system: NCI/ADR-RES ovarian
[51] = test system: RPMI-8226 leukemia
[52] = test system: HOP-62 NSCLC
[53] = test system: UO-31 renal

## COc1ccc(C2=Nn3c(nnc3-n3nc(C)cc3C)SC2)cc1
[1]
  GI50: 45.3 nM
  TGI: > 100000 nM
[2]
  TGI: > 100000 nM
[3]
  GI50: 48.9 nM
  TGI: 4230 nM
[4]
  GI50: 64.2 nM
  TGI: > 100000 nM
[5]
  GI50: 254 nM
  TGI: > 100000 nM
[6]
  GI50: 76.5 nM
  TGI: > 100000 nM
[7]
  GI50: 57 nM
  TGI: > 100000 nM
[8]
  GI50: 46 nM
  TGI: 218 nM
[9]
  GI50: 34.6 nM
  TGI: 114 nM
[10]
  GI50: 23 nM
  TGI: 59.4 nM
[11]
  GI50: 62.6 nM
  TGI: > 100000 nM
[12]
  GI50: 30.3 nM
  TGI: 207 nM
[13]
  GI50: 38 nM
  TGI: > 100000 nM
[14]
  GI50: 50 nM
  TGI: > 100000 nM
[15]
  GI50: 180 nM
  TGI: > 100000 nM
[16]
  GI50: 80.6 nM
  TGI: > 100000 nM
[17]
  GI50: 227 nM
  TGI: > 100000 nM
[18]
  TGI: > 100000 nM
[19]
  GI50: 35.8 nM
  TGI: 482 nM
[20]
  GI50: 107 nM
  TGI: > 100000 nM
[21]
  GI50: 4530 nM
  TGI: > 100000 nM
[22]
  GI50: 69.1 nM
  TGI: > 100000 nM
[23]
  GI50: 340 nM
  TGI: > 100000 nM
[24]
  GI50: 83.1 nM
  TGI: > 100000 nM
[25]
  GI50: 298 nM
  TGI: > 100000 nM
[26]
  GI50: 192 nM
  TGI: > 100000 nM
[27]
  GI50: 177 nM
  TGI: > 100000 nM
[28]
  GI50: 51.8 nM
  TGI: > 100000 nM
[29]
  GI50: 53.2 nM
  TGI: > 100000 nM
[30]
  GI50: 42.3 nM
  TGI: > 100000 nM
[31]
  GI50: 59.9 nM
  TGI: > 100000 nM
[32]
  GI50: 90.8 nM
  TGI: > 100000 nM
[33]
  GI50: 294 nM
  TGI: > 100000 nM
[34]
  GI50: 116 nM
  TGI: > 100000 nM
[35]
  GI50: 40 nM
  TGI: 1250 nM
[36]
  GI50: 24.5 nM
  TGI: 836 nM
[37]
  GI50: 69.4 nM
  TGI: > 100000 nM
[38]
  GI50: 40.1 nM
[39]
  GI50: 44.3 nM
  TGI: > 43400 nM
[40]
  GI50: 55.4 nM
  TGI: > 100000 nM
[41]
  GI50: 24.2 nM
  TGI: > 100000 nM
[42]
  GI50: 40.7 nM
  TGI: 70500 nM
[43]
  GI50: 21.4 nM
[44]
  GI50: 46.2 nM
  TGI: > 100000 nM
[45]
  GI50: 31 nM
  TGI: 529 nM
[46]
  GI50: 146 nM
  TGI: > 100000 nM
[47]
  GI50: 78.1 nM
  TGI: > 100000 nM
[48]
  GI50: 35.1 nM
  TGI: > 100000 nM
[49]
  GI50: 59.9 nM
  TGI: > 100000 nM
[50]
  GI50: 53.6 nM
  TGI: > 100000 nM
[51]
  GI50: 60.5 nM
  TGI: > 70300 nM
[52]
  GI50: 83.9 nM
  TGI: > 100000 nM
[53]
  GI50: 212 nM
  TGI: > 100000 nM
